Where “and” joins values, the source holds several entries; their conditions need not be identical. Equal entries are not always repeated.
Tests used:
ClpP1P2 = ClpP1P2 (Mycobacterium tuberculosis (strain ATCC 25618 / H37Rv), UniProt P9WPC3+P9WPC5); assay: in vitro assay to detect presence of AMC directly proportional to the activity of ClpP1P2. GHDDI collaboration.; assay type: functional
[1] = microbe, parasite or virus in culture; settings: Mycobacterium tuberculosis, 72 h, read-out: pIC50 (converted)
[2] = microbe, parasite or virus in culture; settings: Mycobacterium tuberculosis, 96 h, read-out: pIC50 (converted)
Plasmodium falciparum = assay: Calibr Malaria Delayed Death Assay SOP; assay type: functional, organism-based; settings: for IC50: Plasmodium falciparum

Chain of ClpP1P2 (P9WPC5 whole entry): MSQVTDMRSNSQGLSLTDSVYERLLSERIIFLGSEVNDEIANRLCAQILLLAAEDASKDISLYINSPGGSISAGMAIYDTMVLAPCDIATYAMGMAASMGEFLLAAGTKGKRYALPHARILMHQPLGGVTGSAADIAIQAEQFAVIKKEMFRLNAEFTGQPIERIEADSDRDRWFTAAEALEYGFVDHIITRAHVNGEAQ
Chain of ClpP1P2 (P9WPC3 whole entry): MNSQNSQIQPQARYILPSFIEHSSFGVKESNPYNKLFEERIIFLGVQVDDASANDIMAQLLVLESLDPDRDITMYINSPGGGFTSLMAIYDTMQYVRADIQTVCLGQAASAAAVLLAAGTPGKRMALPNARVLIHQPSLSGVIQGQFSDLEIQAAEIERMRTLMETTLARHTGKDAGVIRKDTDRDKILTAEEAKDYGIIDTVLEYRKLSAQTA

SMILES | IC50 (ClpP1P2) | IC50 [1] | IC50 [2] | pIC50 (Plasmodium falciparum) | IC50 (Plasmodium falciparum)
CC(C)c1ncc(-c2cc(C3CCC3)nc(N)c2C#N)cn1 | > 100000 nM |  |  |  | 
O=C1C(Nc2ccc3nccnc3n2)CCN1c1ccccc1F (centres undefined) | > 100000 nM |  |  |  | 
Cc1ncsc1CCC(=O)NC1CCN(c2ncccc2C#N)CC1 | > 100000 nM |  |  |  | 
Cc1cnn(CC2CCCN2C(=O)CCc2ccncc2)c1 (centres undefined) | > 100000 nM |  |  |  | 
Cn1ccc(-c2cc(C(=O)N3CCC(C(N)=O)CC3)c3ccccn23)n1 | > 100000 nM |  |  |  | 
CS(=O)(=O)N1CC[C@]2(O)CCN(c3cc(C#N)ccn3)C[C@@H]2C1 | > 100000 nM |  |  |  | 
CCN(CC1CCOC1)C(=O)c1cnc2onc(C)c2c1 (centres undefined) | > 100000 nM |  |  |  | 
CCN1CCCC1CNCc1cc2cc(OC)ccc2[nH]c1=O (centres undefined) | > 100000 nM |  |  |  | 
Cc1ccc(CN2CCC3(C2)C(=O)N(CC2CC2)c2ccccc23)s1 (centres undefined) | > 100000 nM |  |  |  | 
Cc1cc(C)n(CCNCc2cc(-c3ccccc3)c[nH]c2=O)n1 | > 100000 nM |  |  |  | 
CC(C)N1CCC(c2cc(C(F)(F)F)n3ccnc3n2)CC1 | > 100000 nM |  |  |  | 
Cc1nc(CN(C)C2CCN(Cc3cccc4c3OCCO4)C2)no1 (centres undefined) | > 100000 nM |  |  |  | 
c1ccc(-c2nc3c(c(NCc4n[nH]c5c4CCC5)n2)CCNC3)cc1 |  | 25700 nM | 46100 nM | 6.219 | 902 nM
CCc1cnc(N)nc1NC(C)c1ccc(C)c(C)c1 (centres undefined) |  | 23800 nM | 44100 nM | 6.042 | 893 nM
Oc1ccc(Cl)cc1CNCc1cccc(C(F)(F)F)c1 |  | 43200 nM | 29100 nM | 6.177 | 653 nM
OC1(CN2CCC(Oc3cccc(C(F)(F)F)c3)CC2)CCNC1 (centres undefined) |  | > 50100 nM |  | 6.152 | 690 nM
COc1ccc2[nH]c(CNc3cc(C4CCNCC4)nc(C)n3)cc2c1 |  | 14300 nM | 12400 nM | 5.758 | 1830 nM
c1cncc(-c2ccc3c(c2)CCC32CCNCC2)c1 |  | 46200 nM | 40900 nM | 5.939 | 1280 nM
O=C(CCN1CCCC1c1cccc2c1OCCO2)N1CCCCC1 (centres undefined) |  | 25200 nM | > 50100 nM | 5.987 | 845 nM
Cc1nc(-c2cc(Cl)cc3c2OC(CN)C3)c[nH]1 (centres undefined) |  | 13600 nM | > 50100 nM | 6.207 | 655 nM
Cc1cc(Cc2cccc(C(F)(F)F)c2)cc(C2CCCNC2)n1 (centres undefined) |  | 25300 nM | 37900 nM | 6.047 | 1120 nM
CCOc1ccc(CN2CCCC(c3cc4ncccc4[nH]3)C2)cc1 (centres undefined) |  | 33600 nM | 24800 nM | 6.15 | 842 nM
CS(=O)(=O)CCCNC1(c2cccc(Cl)c2)CCCC1 |  | > 50100 nM | > 50100 nM | 6.268 | 870 nM
Cc1ccc(CNCc2cccc3cccnc23)c(OC2CCOC2)c1 (centres undefined) |  | > 50100 nM | > 50100 nM | 6.31 | 619 nM
Cn1ccnc1CN(Cc1ccccn1)Cc1ccccc1Cl.O=C(O)CC(O)(CC(=O)O)C(=O)O |  | 45500 nM |  | 6.114 | 725 nM
CC[C@H]1CN2CC[C@H]1C[C@@H]2CNCc1ccc(OC(F)(F)F)cc1 |  | 31900 nM | 19800 nM | 6.073 | 806 nM
CC1CCCCN1C(=O)c1coc(COc2cccc3cnccc23)n1 (centres undefined) |  | 44000 nM | 24400 nM | 6.214 | 616 nM

SMILES | IC50 (ClpP1P2) | IC50 [1] | IC50 [2] | pIC50 (Plasmodium falciparum) | IC50 (Plasmodium falciparum)
CC[C@H]1CN2CC[C@H]1C[C@@H]2CNC(=O)Nc1cc(OC)cc(OC)c1 |  | > 50100 nM | > 50100 nM | 6.272 | 762 nM
CC(Nc1nc(-c2ccccc2)nc2c1CCNCC2)c1cccnc1 (centres undefined) |  | 27600 nM | 28000 nM | 5.884 | 1460 nM
Cc1cnn(CCCNCc2csc(COc3ccccc3)n2)c1 |  | 27800 nM | 11400 nM | 6.021 | 828 nM
Cl.Cl.Clc1cccc(C[C@@H]2NCCC[C@@H]2Nc2ccccc2)c1 |  | 12000 nM | 16000 nM | 6.034 | 789 nM
CCOc1cccc(CN2CCCC(Nc3ccc(F)cc3)C2)c1O (centres undefined) |  |  | 46100 nM | 6.217 | 577 nM
c1ccc(C2CN(C3CC3)CC3(CCN(Cc4cscn4)CC3)C2)cc1 (centres undefined) |  | 26100 nM | 25700 nM | 6.129 | 969 nM
O=C(CCN1CCCC(CO)(CC2CC2)C1)NCc1cccc(Cl)c1 (centres undefined) |  | > 50100 nM | > 50100 nM | 5.764 | 1320 nM
COCCN(C)Cc1cc(Cl)ccc1OCC(O)CN1CCCCCC1 (centres undefined) |  | > 50100 nM | 12400 nM | 6.019 | 953 nM
Cc1nc(-c2cc(Cl)c3c(c2)CC(CN)O3)c[nH]1 (centres undefined) |  | 2580 nM | 8330 nM | 5.986 | 1390 nM
CCc1[nH]c2c(CNc3cc(C)nc(NC)n3)cc(C)cc2c1C |  | 35700 nM | 40300 nM | 6.096 | 750 nM
CCC[C@H]1CN(S(=O)(=O)c2ccc(-c3c(C)noc3C)s2)C[C@@H]1N |  |  |  | 6.179 | 798 nM
Cc1cccc(Nc2cccc(C3CCCN(Cc4ncc[nH]4)C3)n2)n1 (centres undefined) |  |  |  | 6.378 | 465 nM
CC(C)(C)n1cc(C2=CCN(CCN3CCCCCC3)CC2)cn1 |  |  |  | 5.987 | 994 nM
CN(CCCO)Cc1cc(Cl)ccc1OCC(O)CN1CCCCCC1 (centres undefined) |  |  |  | 6.2 | 738 nM
CCCOc1ccccc1CN[C@@H]1CCC[C@H]1Cc1cc(C)no1.O=C(O)CC(O)(CC(=O)O)C(=O)O |  |  |  | 5.985 | 1230 nM
CSc1ccc(-c2nc(CN3CCC(CN)C3)c(C)o2)cc1 (centres undefined) |  |  |  | 5.962 and 5.805 and 6.058 | 1020 nM
CC(C)[C@H](CO)Nc1nccc(-c2c[nH]nc2-c2ccncc2)n1 |  |  |  | 5.945 | 1130 nM
CCCn1ccnc1CN1CCCC1c1ccccn1 (centres undefined) |  | > 50100 nM | > 50100 nM | 6.456 | 395 nM
O=C(NC1CCN(CC2CCCC2)C1)N1CCC(OCC2CC2)CC1 (centres undefined) |  |  |  | 5.978 | 966 nM
COCCn1ccnc1CN(Cc1ccccn1)Cc1sccc1C |  |  |  | 6.065 | 650 nM
CC(C)C(CNCc1cccc2c1OCO2)N1CCOCC1 (centres undefined) |  |  |  | 6.558 | 429 nM
Cc1cccc2[nH]c(-c3cn(C4CCNCC4)nn3)nc12 |  |  |  | 6.226 | 597 nM
Cc1n[nH]cc1CNC1(c2ccc(F)cc2)CCCC1 |  |  |  | 6.295 | 584 nM
Cn1cc(CN2CCCC(CCc3ccccc3C(F)(F)F)C2)cn1 (centres undefined) |  |  |  | 6.083 | 726 nM
CC(=O)N(c1ccc(C)cc1)c1nc(CN2CCCC(C)C2)cs1 (centres undefined) |  |  |  | 5.762 | 1610 nM
c1ccn2c(C3CCCN(c4ncnc5c4CCNC5)C3)nnc2c1 (centres undefined) |  |  |  | 6.629 | 213 nM
CC(C)c1nn(C)c(Cl)c1CNCC(O)c1cccc(F)c1.Cl (centres undefined) |  |  |  | 6.252 | 392 nM

SMILES | IC50 (ClpP1P2) | IC50 [1] | IC50 [2] | pIC50 (Plasmodium falciparum) | IC50 (Plasmodium falciparum)
Fc1ccc2c(C3=CCN(Cc4nnc(C5CCC5)o4)CC3)c[nH]c2c1 |  |  |  | 5.905 | 1700 nM
NCC1[C@H]2CN(Cc3cccc(Cl)c3)C[C@@H]12 (some centres undefined) |  |  |  | 6.278 | 553 nM
Cc1ccccc1CNCc1cc(Cl)ccc1O |  |  |  | 6.395 | 601 nM
CCN1CCC2(CC1)CC(NCc1ccncc1)c1ccccc1O2.O=C(O)C(F)(F)F.O=C(O)C(F)(F)F.O=C(O)C(F)(F)F (centres undefined) |  |  |  | 6.198 | 579 nM
COc1c(C)cnc(CN2CCC(N(C)C(C)C(N)=O)CC2)c1C (centres undefined) |  |  |  | 6.018 | 876 nM
CC(C)Oc1ccc(C(O)CNCc2ccccc2C(F)(F)F)cc1 (centres undefined) |  |  |  | 5.963 | 1150 nM
CN1CCC(N(Cc2ccco2)S(=O)(=O)c2ccc(Cl)cc2)CC1 |  |  |  | 6.409 | 560 nM
CC(O)CN1CCC(CN(C)Cc2cc(F)cc3cccnc23)CC1 (centres undefined) |  |  |  | 5.98 | 1120 nM
OCCN1CCC(CNCc2ccccc2OC(F)(F)F)CC1 |  |  |  | 6.066 | 770 nM
Brc1cccc(C2(CNCc3cc[nH]c3)CCOCC2)c1 |  |  |  | 6.135 | 829 nM
OCc1csc(N2CCCC(COc3cccc(F)c3)C2)n1 (centres undefined) |  |  |  | 6.326 | 363 nM
CC(NCCc1nccn1Cc1ccccc1)c1cccs1 (centres undefined) |  |  |  | 5.98 | 1290 nM
CCN1CCC2(CC1)CC(NCc1cccs1)c1ccccc1O2.O=C(O)C(F)(F)F.O=C(O)C(F)(F)F (centres undefined) |  |  |  | 6.431 | 287 nM
O[C@H]1[C@H](n2cc(CN3CCCC3)nn2)c2ccccc2C12CCNCC2 |  |  |  | 7.12 | 64.7 nM
O=C(Nc1ccc(OC2CCCC2)cc1)C1CCCN1c1nccs1 (centres undefined) |  |  |  | 7.074 | 79.3 nM
CC(C)(C)C(=O)N1C[C@H](c2ccsc2)[C@H]2CN(C3CCCCC3)CC[C@H]21.Cl |  |  |  | 6.133 | 683 nM
CCCOc1ccc2ccccc2c1CN1CC[C@@]2(O)CCNC[C@H]2C1 |  |  |  | 6.043 | 924 nM
COc1ccccc1C1(NCc2c(C)nc3c(C)cccn23)CCCC1.Cl |  |  |  | 6.178 | 748 nM
FC(F)(F)c1cc(C2CCNCC2)nc(-c2ccsc2)n1 |  |  |  | 6.171 | 626 nM
CN1CCCC(c2cccc(Cc3ccccc3Cl)n2)C1 (centres undefined) |  |  |  | 6.022 | 1020 nM
CCC(NCc1ccccc1Cl)c1ccccc1OCC(=O)NC (centres undefined) |  |  |  | 6.134 and 5.792 | 
CC1CN(Cc2ccccc2Cn2cccn2)CCN1C (centres undefined) |  |  |  | 6.079 | 1080 nM
COc1ccc(NC(=O)Nc2cnc(N3CCN(C)CC3)nc2)cc1Cl |  |  |  | 6.139 | 843 nM
O=C(O)C(F)(F)F.c1ccc(C[C@H]2CN(C3CCOCC3)CC[C@H]2OCC2CC2)cc1 |  |  |  | 6.236 | 757 nM
CC(C)(C)C(=O)NCCNCc1ccc(Cl)c2cccnc12 |  |  |  | 6.099 | 703 nM

Reference: ChEMBL document CHEMBL3988442, “University of Dundee, Small-Polar-MMV Screening Library” (2021)
